Values quoted from earlier work, collected in patent US20090325807A1, “Method of Improving Plant Growth” (Bayer Cropscience AG, priority 2004, published 2009).

System: cucumis melo L.
Conditions: in the absence of insects

In the case of O=[N+]([O-])NC1=NCCN1Cc1ccc(Cl)nc1 [imidacloprid, Imidacloprid], the growth effect is given as “no growth effect”.
